Values joined by “and” are separate entries in the source; they are usually repeats but may differ in a detail not shown here. Equal values may be shown once. Read-outs that look alike come from different tables or passages of the source.

Test [1] has as its target T1, PRMT5:MEP50 (Homo sapiens, UniProt O14744).
T1 construct: full-length human PRMT5 (residues 1–637, NP_006100); FLAG; made in house; host or cells: Sf9 insect cells (Bac-to-Bac baculovirus)
The experiment in a line: MTase-Glo methyltransferase enzymatic inhibition assay (methylation of H4 peptide). The class given is biochemical. The following applies: 100 nM PRMT5:MEP50, 10 µM SAM, 2 µM histone H4 peptide (1-21), n = 3.
Procedure: Recombinant PRMT5:MEP50 was purified to biochemical homogeneity from sf9 cells (Supplementary Fig. 1). Inhibition of PRMT5 activity (methylation of H4 peptide) was monitored by measuring luminescence from a MTase-Glow detection reagent.
PRMT5:MEP50 protein complex was prepared as described by Antonysamy, S., et al.[39]. Briefly, full-length human PRMT5 (residues 1–637, NP_006100) and human MEP50 (residues 2–342, NP_077007) were co-expressed in Sf9 cells using a Bac-to-Bac expression system (Invitrogen). The cells were harvested and lysed. […]
11-2 F was serially diluted by 5-fold from 500 µM to 6.4 nM in DMSO then added into reaction buffer (30 mM Tris-HCl at pH 7.4, 500 mM NaCl, 2 mM MgCl2, 2 mM TCEP, 0.1% (wt/vol) BSA and 0.01% (vol/vol) Tween-20) with final DMSO concentration at 5% (vol/vol). […] After shaking for 2 min and incubation at room temperature for 30 min, 20 µl room temperature MTase-Glo Detection Solution was added and mixed well before incubation for another 30 min and luminescence recording. Luminescence was measured in a Synergy Neo2 HTS multimode microplate reader (BioTek). […] Data are analyzed in GraphPad Prism 8. For inhibitor studies, IC50 was determined by nonlinear regression (curve fitting) using the equation for the sigmoidal dose response (variable slope).

For test [2], the target named is T1, PRMT5:MEP50. Kind of test: Surface plasmon resonance (SPR) binding study. On the procedure:
PRMT5:MEP50 protein complex was prepared as described by Antonysamy, S., et al.[39]. Briefly, full-length human PRMT5 (residues 1–637, NP_006100) and human MEP50 (residues 2–342, NP_077007) were co-expressed in Sf9 cells using a Bac-to-Bac expression system (Invitrogen). The cells were harvested and lysed. After removal of cell debris, supernatants were collected for FLAG-affinity chromatography (Sigma; A2220) and fractionated by size exclusion chromatography in a 10/300 Superose 6 column (GE Life Sciences). The purified PRMT5:MEP50 complex was characterized by SDS-PAGE and sedimentation velocity analytical ultracentrifugation (SV-AUC) using a ProteomeLab™XL-I system (Beckman Coulter; Supplementary Fig. 1). Protein samples were concentrated to 12 mg/mL in a buffer containing 10 mM HEPES at pH 7.5, 150 mM NaCl, 10% (vol/vol) glycerol and 2.0 mM DTT and were stored at −80 °C until the time of use.
Binding affinity measurements were conducted in a Reichert2SPR instrument (Ametek) at 25 °C. PRMT5:MEP50 proteins were directly immobilized onto a 500,000 Da carboxymethyl dextran sensor chip at pH 5.5 using a standard amine-coupling approach. The small molecule analyte (11-2 F as an example) was injected at a flow rate of 30 μL/min of different concentrations in the running buffer (10 mM HEPES pH 7.4, 150 mM NaCl, 3.0 mM EDTA, 0.005% v/v Tween-20, and 5% DMSO). The association and dissociation times were set to be 1 min. […] The dissociation time for 11-2 F in MTA-containing running buffer was elongated to be 3 min to achieve complete dissociation. Sensorogram data were processed using the TraceDrawer software package to calculate the equilibrium dissociation constant KD, the association rate constant kon and the dissociation rate constant koff.

The test system of test [3] is SDMA from PRMT5 activity in MDA-MB-231 cells. The experiment in a line: Cell-based assay of SDMA by western blotting (MTA-synergy in cultured cells). The following applies: Homo sapiens, MDA-MB-231, 96 h, read-out: IC50, inhibition of SDMA production. An excerpt:
The above analysis highlighted three principles that should be considered to enhance PRMT5 inhibition by 11-2F analogs. (1) It is important to retain the quinoline ring backbone to maintain the positive cooperativity with MTA. (2) The pi-stacking interactions of Trp579 and Phe327 with the quinoline ring may be enhanced to keep the inhibitor properly oriented, which could be achieved by introducing small groups (-F, or -CH3, or -NH3^+) to the ring. (3) The cyclo-alkylated indole ring of 11-2F is relatively flexible and may be stabilized by introducing H-bonds or electrostatic interactions with the binding pocket, especially with the residues on the flexible loop. […] Three 11-2F analogs predicted to have higher potency introduce more interactions with the binding pockets (Table 2; Supplementary Figs. 6–8, and Supplementary Tables 5–7). […] In the binding pocket, the 2,4-di-NH2-quinazoline of 11-9 F forms H-bonds with E444, E435, and S439, and its aromatic ring is sandwiched between the sidechains of Phe327 and Trp579. […]
MDA-MB-231 cells were seeded at 1.0 × 10^6 cells/dish and allowed to adhere overnight. […] The protein concentrations were determined using the BCA Protein Assay kit (Pierce #23227). […] After three washes with the TBST buffer, the membrane was analyzed using ECL Western blotting detection reagents (Pierce #34096) and imaged in a ChemiDoc MP imaging system (Bio-Rad). […]

T1 sequence (O14744 whole entry, the tested form may be a part): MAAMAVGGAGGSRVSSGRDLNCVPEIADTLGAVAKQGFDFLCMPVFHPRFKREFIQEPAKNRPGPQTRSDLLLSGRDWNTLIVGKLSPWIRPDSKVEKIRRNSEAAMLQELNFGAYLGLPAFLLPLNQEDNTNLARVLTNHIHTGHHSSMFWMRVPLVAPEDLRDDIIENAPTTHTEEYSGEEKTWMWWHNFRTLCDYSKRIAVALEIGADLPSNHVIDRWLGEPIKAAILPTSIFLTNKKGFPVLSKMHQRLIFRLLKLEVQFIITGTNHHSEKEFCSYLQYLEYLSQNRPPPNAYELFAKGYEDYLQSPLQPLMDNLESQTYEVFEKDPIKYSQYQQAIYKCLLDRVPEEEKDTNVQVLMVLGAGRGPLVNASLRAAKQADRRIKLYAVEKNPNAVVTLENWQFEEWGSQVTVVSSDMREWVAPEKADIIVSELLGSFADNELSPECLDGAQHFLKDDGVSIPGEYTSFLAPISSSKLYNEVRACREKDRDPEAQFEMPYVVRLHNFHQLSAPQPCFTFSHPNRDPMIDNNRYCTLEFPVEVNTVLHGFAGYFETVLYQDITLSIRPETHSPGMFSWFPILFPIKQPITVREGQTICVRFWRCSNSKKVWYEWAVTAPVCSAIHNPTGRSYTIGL
T1 sequence (Q9BQA1 2-342 partner limits assumed): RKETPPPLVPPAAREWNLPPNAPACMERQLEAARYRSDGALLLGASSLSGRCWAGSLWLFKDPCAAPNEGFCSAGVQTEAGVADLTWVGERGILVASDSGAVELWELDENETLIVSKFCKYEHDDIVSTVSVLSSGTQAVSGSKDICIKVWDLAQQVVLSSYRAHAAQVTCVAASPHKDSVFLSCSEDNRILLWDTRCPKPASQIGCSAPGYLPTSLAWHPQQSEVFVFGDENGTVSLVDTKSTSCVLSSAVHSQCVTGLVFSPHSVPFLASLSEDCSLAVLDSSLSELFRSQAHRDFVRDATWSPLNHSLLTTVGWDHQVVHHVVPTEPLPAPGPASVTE

With `Nc1ccc2ccc(CNC(=O)c3ccc4c(c3)c3c(n4CCO)CCCC3)cc2n1` [11-2F, N-[(2′-aminoquinoline)-7′-methyl]-[9-(2-hydroxyethyl)-5,6,7,8-tetrahydro-carbazole]-3-carboxamide], the IC50 in test [1] (read-out: IC50, inhibition of PRMT5:MEP50 enzyme activity) is approximately 730 nM; in test [1] (read-out: IC50, inhibition of PRMT5 enzyme activity), 730 ± 200 nM. In test [2] (KD without MTA vs with 25 μM MTA), the “apparent positive coupling coefficient between 11-2F and MTA” value is ~ 166. Also, the Kd in test [2] (PRMT5:MEP50 saturated with 25 μM MTA) was ~82 nM and 82.1 nM; in test [2] (PRMT5:MEP50 saturated with 25 μM SAH), 1600 nM and 1630 nM; in test [2] (PRMT5:MEP50 saturated with 25 μM SAM) it was 380 nM and 375 nM; in test [2] (without MTA (no cofactor)) it was approximately 13600 nM. The koff in test [2] (saturated with 25 μM MTA) came out at 0.0202 s⁻¹; in test [2] (saturated with 25 μM SAH) it was 0.112 s⁻¹; in test [2] (saturated with 25 μM SAM), 0.019 s⁻¹; in test [2] (without MTA (no cofactor)), 0.0844 s⁻¹. Further, the kon in test [2] (saturated with 25 μM MTA) came to 246000 M⁻¹ s⁻¹; in test [2] (saturated with 25 μM SAH), 75700 M⁻¹ s⁻¹; in test [2] (saturated with 25 μM SAM), 50700 M⁻¹ s⁻¹; in test [2] (without MTA (no cofactor)), 6190 M⁻¹ s⁻¹.
In the case of `CCn1c2c(c3cc(C(=O)NCc4ccc5c(N)nc(N)nc5c4)ccc31)CCCC2` [11-9F, N-[(2′,4′-diaminoquinazoline)-7′-methyl]-[9-ethyl-5,6,7,8-tetrahydro-carbazole]-3-carboxamide], the IC50 in test [3] (0 μM additional MTA (black trace)) was 32.4 µM; in test [3] (5.0 μM MTA (red trace)), 2.4 µM.

(Values after paper PMC9530242, “Cryo-EM structure-based selection of computed ligand poses enables design of MTA-synergic PRMT5 inhibitors of better potency” (Communications Biology, 2022).)
